Series [1] relates to 786-0. Description: Antiproliferative activity against human 786-0 cells assessed as cell growth inhibition measured for 72 hrs by MTT assay. It counts as functional, cell-based. The following applies: 786-0, 72 h. Background: Tetrazolium assays rely on reduction of a dye to a coloured formazan, in cell work by metabolically active cells.
In series [2] the test system is 4T1. Description: Antiproliferative activity against mouse 4T1 cells assessed as cell growth inhibition measured for 72 hrs by MTT assay. The conditions noted are these: 4T1, 72 h. It counts as functional, cell-based.
For series [3], the system named is PANC-1. Briefly: Antiproliferative activity against human PANC-1 cells assessed as cell growth inhibition measured for 72 hrs by MTT assay. It counts as functional, cell-based. The conditions noted are these: PANC-1, 72 h.
In the next series the test system is HGC-27. Description: Antiproliferative activity against human HGC-27 cells assessed as cell growth inhibition measured for 72 hrs by MTT assay. It counts as functional, cell-based. The conditions noted are these: HGC-27, 72 h.
Series [4] concerns MCF7. Description: Antiproliferative activity against human MCF7 cells assessed as cell growth inhibition measured for 72 hrs by MTT assay. It counts as functional, cell-based. The conditions noted are these: MCF7, 72 h.
Series [5] relates to MCF7. Description: Potency index, ratio of IC50 for lonidamine to test compound IC50 for human MCF7 cells assessed as cell growth inhibition measured for 72 hrs by MTT assay. It counts as functional.
Series [6] deals with T1, Hexokinase-2 (Mus musculus) (UniProt O08528).
T1 sequence (whole entry): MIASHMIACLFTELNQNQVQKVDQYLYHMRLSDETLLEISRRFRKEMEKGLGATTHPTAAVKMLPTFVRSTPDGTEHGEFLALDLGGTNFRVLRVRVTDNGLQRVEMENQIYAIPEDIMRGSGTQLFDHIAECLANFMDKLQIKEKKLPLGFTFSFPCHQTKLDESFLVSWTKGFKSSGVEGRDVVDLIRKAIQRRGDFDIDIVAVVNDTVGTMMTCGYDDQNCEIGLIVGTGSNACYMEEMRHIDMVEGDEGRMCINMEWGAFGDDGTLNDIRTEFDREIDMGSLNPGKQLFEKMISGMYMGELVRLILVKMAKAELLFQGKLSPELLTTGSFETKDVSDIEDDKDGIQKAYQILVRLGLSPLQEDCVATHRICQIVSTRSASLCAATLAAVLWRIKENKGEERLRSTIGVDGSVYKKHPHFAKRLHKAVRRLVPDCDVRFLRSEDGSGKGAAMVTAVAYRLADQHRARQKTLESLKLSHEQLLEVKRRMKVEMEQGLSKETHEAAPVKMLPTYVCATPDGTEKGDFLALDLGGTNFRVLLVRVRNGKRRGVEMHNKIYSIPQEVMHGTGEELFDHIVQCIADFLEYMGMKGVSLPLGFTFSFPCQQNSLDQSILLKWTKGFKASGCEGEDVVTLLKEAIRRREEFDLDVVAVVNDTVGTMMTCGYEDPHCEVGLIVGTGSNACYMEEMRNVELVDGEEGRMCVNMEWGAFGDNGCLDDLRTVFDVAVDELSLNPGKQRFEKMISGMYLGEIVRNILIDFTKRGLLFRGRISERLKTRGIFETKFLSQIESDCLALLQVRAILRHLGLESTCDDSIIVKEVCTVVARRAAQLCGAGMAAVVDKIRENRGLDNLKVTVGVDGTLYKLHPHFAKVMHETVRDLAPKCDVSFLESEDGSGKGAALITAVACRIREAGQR
Briefly: Induction of HK2 degradation in mouse 4T1 cells at 20 uM measured for 36 hrs by Western blot analysis relative to control. It counts as cell-based. (Immunoblotting shows a protein as a band on a membrane.)

Series [7] relates to PANC-1. Briefly: Potency index, ratio of IC50 for lonidamine to test compound IC50 for human PANC-1 cells assessed as cell growth inhibition measured for 72 hrs by MTT assay. It counts as functional.
Series [8] has as its system 786-0. Briefly: Potency index, ratio of IC50 for lonidamine to test compound IC50 for human 786-0 cells assessed as cell growth inhibition measured for 72 hrs by MTT assay. It counts as functional.
In series [9] the test system is 4T1. Briefly: Upregulation of HK2 protein expression in mouse 4T1 cells at 2 uM incubated for 6 hrs by Western blot analysis. It counts as functional, cell-based.
The nature of series [10]: Drug uptake in mouse 4T1 cells assessed as drug internalization at 20 uM incubated for 36 hrs by immunofluorescence analysis. The following applies: 4t1, 36 h. It counts as ADME, cell-based.

SMILES strings stand for the structures. Activity calls are given as the source filed them. The calls are words filed in the database; no cut-off is given here. Residues, ends and D or L forms follow the SMILES beside them. *: point of attachment. Cbz = O=C(OCc1ccccc1)*

In the case of `O=C1CCC(N2C(=O)c3cccc(NCCOCCOCCNC(=O)c4nn(Cc5ccc(Cl)cc5Cl)c5ccccc45)c3C2=O)C(=O)N1` (stereo not drawn), the IC50 in the series on 786-0 [1] turned out to be 30.1 µM; with 4T1 [2], 22.9 µM; with PANC-1 [3] it was 37.8 µM; with HGC-27, 24 µM; in the series on MCF7 [4], 18.2 µM. Besides, the “Ratio IC50” value with MCF7 [5] worked out at 10.9. The Activity in series [6] is 30.6%.

`O=C1CCC(N2C(=O)c3cccc(NCCCNC(=O)c4nn(Cc5ccc(Cl)cc5Cl)c5ccccc45)c3C2=O)C(=O)N1` (stereo not drawn): the IC50 in the series on 786-0 [1] came out at 12.2 µM; with 4T1 [2], 34.6 µM; in the series on PANC-1 [3], 25.4 µM; with HGC-27, 7.22 µM; with MCF7 [4], 18.7 µM. Moreover, the “Ratio IC50” value was 6.5 with PANC-1 [7] and 9.8 in the series with 786-0 [8]. This compound also gave an Activity in series [6] of 10.8%.

`CC(C)C[C@@H](C=O)NC(=O)[C@H](CC(C)C)NC(=O)[C@H](CC(C)C)NC(=O)OCc1ccccc1` (Cbz-Leu-Leu-Leu-aldehyde): in the series on 4T1 [9], the result was Active.

For `O=C1CCC(N2C(=O)c3cccc(NCCCCOC(=O)c4nn(Cc5ccc(Cl)cc5Cl)c5ccccc45)c3C2=O)C(=O)N1` (stereo not drawn), the IC50 in the series with 786-0 [1] was found to be 70.3 µM; in the series with 4T1 [2], 32.2 µM; in the series with PANC-1 [3] it was 46.3 µM; in the series with HGC-27 it was 10.2 µM; in the series with MCF7 [4], 64.2 µM. The compound further displayed an Activity in [6] of 22.9%. In [10], the Drug uptake result is recorded as “Active”.

By IC50 is commonly meant the concentration at which inhibition is half-maximal.
